Reference: patent US11814648B2, “Functional oligodendrocytes derived from pluripotent stem cells and methods of making and using the same” (New York Stem Cell Foundation, Inc., priority 2014, dated 2023)

Assays:
[1] = test system: OLIG2-GFP knock-in hESC reporter line; test: Flow cytometric quantification of OLIG2-GFP expression under RA/SHH/SAG conditions; assay type: cell-based, human
Description: FIGS. 2A-2D show the requirement for RA and SHH to derive OLIG2^+ progenitor cells. […] RA at a concentration of 100 nM from day 0 results in the highest yield of GFP^+ cells. […] Negative: hESC line RUES1. […] Error bars are SEM (N=3). […] Only GFP^+ cells form spheres, providing enrichment to the GFP^+ population.
We used an OLIG2-GFP knock-in hESC reporter line (Liu et al., 2011) to track OLIG2^+ progenitors by live fluorescent imaging. First, we induced PAX6^+ cells using dual inhibition of SMAD signaling in adherent cultures. Chambers, S. M. et al., Nat Biotechnol. 27:275-80 (2009). Next, to mimic the embryonic spinal cord environment, we applied different concentrations of RA and/or SHH at various times and quantified OLIG2-GFP expression through flow cytometry (FIG. 2A).
At day 12, cells were detached and placed into low-attachment plates to promote their aggregation into spheres. The minimum number of cells required to form a sphere was at least 100 cells, and we noted that the majority of cells in the spheres were GFP^+. To investigate this further, we sorted day 12 cultures for GFP, and observed that only the GFP^+ cells formed aggregates (FIG. 2C).
At the day of differentiation induction (day 0), medium was switched to Neural Induction Medium, which is mTeSR Custom Medium (Stemcell Technologies) containing the small molecules SB431542 10 μM (Stemgent) and LDN193189 250 nM (Stemgent), as well as 100 nM all-trans-RA (Sigma-Aldrich; St. Louis, Mo.). mTeSR Custom Medium has the same composition as the commercially available mTeSR-1 medium but without five factors that sustain pluripotency, namely lithium chloride, GABA, pipecolic acid, bFGF, and TGFβ1 (Stemcell Technologies). […]
(§1) Cells were enzymatically harvested by ACCUTASE® treatment for 25 min at 37° C. to obtain a single cell suspension. Cells were then re-suspended in 100 μl of their respective medium containing the appropriate amount of either primary antibody or fluorescence-conjugated antibodies and were incubated on ice for 30 minutes shielded from light. […] Flow cytometry data were analyzed using BD FACSDiva™ software.

O4^+ cells = test: FACS-analysis for O4+ cells at day 75 of differentiation; assay type: cell-based, human; conditions: RA only vs RA and SAG in the first 12 days
Description: FIGS. 3A-3C show SHH and dual SMAD inhibition requirements for OLIG2^+ progenitors. […] Endogenous SHH levels are higher in the samples that were not exposed to SHH/SAG. Error bars are SEM (N=3). […] Negative Control: APC-conjugated secondary antibody only.
Spheres were plated on pO/L plates, as described above, in PDGF Medium at day 30, changing ⅔ of the PDGF Medium every other day until day 75 of differentiation. The appearance of O4^+ cells was assessed by live O4 staining from day 55 onwards (FIG. 6). At day 75, O4^+ OPCs could be isolated by FACS (FIG. 7I). Alternatively, for terminal oligodendrocyte differentiation (FIG. 7G-7H), cells were cultured in Glial Medium from day 75, changing ⅔ of the medium every 3 days for two weeks.
as §1, with “light. When secondary antibodies were used, primary antibodies were washed with PBS and secondary antibodies were applied for 30 minutes on ice.” for “light.”

SMILES | OLIG2^+ progenitors generated ([1]; 100 nM RA from the beginning of induction, no exogenous SHH, OLIG2-GFP flow cytometry, day 14) | Yield of GFP^+ cells under different RA and SHH conditions ([1]; RA 100 nM from day 0, day 14 of differentiation) | OLIG2^+ progenitors yield ([1]; SAG replacing recombinant human SHH from day 8, with 100 nM RA from day 0) | Decrease in the O4^+ population in cells not provided with SAG (O4^+ cells)
CC1=C(/C=C/C(C)=C/C=C/C(C)=C/C(=O)O)C(C)(C)CCC1 [RA, all trans retinoic acid] | 40.6% | highest yield | – | –
CN[C@H]1CC[C@H](N(Cc2cccc(-c3ccncc3)c2)C(=O)c2sc3ccccc3c2Cl)CC1 [SAG, 3-chloro-N-[(1r,4r)-4-(methylamino)cyclohexyl]-N-[3-(pyridin-4-yl)benzyl]benzo[b]thiophene-2-carboxamide] | – | – | 70.1% | 56%
